The numbers were not newly measured in paper PMC11476552, “Synthesis and Preliminary Studies for In Vitro Biological Activity of Two New Water-Soluble Bis(thio)carbohydrazones and Their Copper(II) and Zinc(II) Complexes” (International Journal of Molecular Sciences, 2024), which cites them from elsewhere.

Details of the data set: method as in PMID 29334758. Particulars: cited from earlier work.

Regarding `S=C(N/N=C1\CCCc2cccnc21)N1CCN(c2ccccn2)CC1` [COTI-2], the “cytotoxic activity (in words)” value was “nanomolar cytotoxic activity”.
`CN(C(=S)NN=C(c1ccccn1)c1ccccn1)C1CCCCC1` [DpC, di-2-pyridylketone 4-cyclohexyl-4-methyl-3-thiosemicarbazone]: the “cytotoxic activity (in words)” value was “nanomolar cytotoxic activity”.
